This passage reports fold induction and IC50 results from PMC6100537, “Exploration of the Fluorescent Properties and the Modulated Activities against Sirtuin Fluorogenic Assays of Chromenone-Derived Natural Products” (Molecules : A Journal of Synthetic Chemistry and Natural …, 2018).

Assay [1] has as its target T1, SIRT1 (Homo sapiens, UniProt Q96EB6).
T1 construct: SIRT1 (part)
T1 sequence (Q96EB6 2-747): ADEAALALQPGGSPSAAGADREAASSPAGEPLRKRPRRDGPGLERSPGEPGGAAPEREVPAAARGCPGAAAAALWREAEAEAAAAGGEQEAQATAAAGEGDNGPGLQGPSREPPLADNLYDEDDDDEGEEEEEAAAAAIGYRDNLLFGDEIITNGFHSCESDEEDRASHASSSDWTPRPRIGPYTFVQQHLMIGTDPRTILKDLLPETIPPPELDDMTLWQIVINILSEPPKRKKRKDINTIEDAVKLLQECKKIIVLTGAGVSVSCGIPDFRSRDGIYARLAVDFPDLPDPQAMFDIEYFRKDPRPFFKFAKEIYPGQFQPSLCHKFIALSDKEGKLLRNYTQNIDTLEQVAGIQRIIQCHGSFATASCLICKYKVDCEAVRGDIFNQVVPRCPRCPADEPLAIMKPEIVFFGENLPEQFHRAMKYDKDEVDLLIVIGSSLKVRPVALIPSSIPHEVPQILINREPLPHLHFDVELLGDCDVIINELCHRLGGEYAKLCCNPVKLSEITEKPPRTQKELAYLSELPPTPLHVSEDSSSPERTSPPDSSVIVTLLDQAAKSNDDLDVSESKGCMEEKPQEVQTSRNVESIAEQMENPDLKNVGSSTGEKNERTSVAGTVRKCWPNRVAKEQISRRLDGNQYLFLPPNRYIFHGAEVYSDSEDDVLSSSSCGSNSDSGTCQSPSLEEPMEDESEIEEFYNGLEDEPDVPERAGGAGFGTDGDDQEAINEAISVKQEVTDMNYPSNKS
Description: AMC-peptide fluorogenic deacetylase assay with recombinant SIRT1, activation at […], compound fluorescence background subtracted. It is filed as biochemical.

The target in assay [2] is T2, SIRT2 (Homo sapiens, UniProt Q8IXJ6).
T2 construct: SIRT2 (whole)
T2 sequence (Q8IXJ6 1-389): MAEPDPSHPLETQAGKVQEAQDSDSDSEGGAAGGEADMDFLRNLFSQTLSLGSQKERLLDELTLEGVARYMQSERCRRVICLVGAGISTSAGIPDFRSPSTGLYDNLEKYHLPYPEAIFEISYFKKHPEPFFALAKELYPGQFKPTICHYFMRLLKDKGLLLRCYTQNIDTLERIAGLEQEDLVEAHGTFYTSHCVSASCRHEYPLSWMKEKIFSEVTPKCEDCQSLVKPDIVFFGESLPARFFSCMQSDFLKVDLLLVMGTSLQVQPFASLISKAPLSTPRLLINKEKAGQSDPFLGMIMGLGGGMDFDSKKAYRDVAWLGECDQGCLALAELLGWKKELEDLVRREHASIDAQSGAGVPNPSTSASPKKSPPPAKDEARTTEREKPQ
Description: AMC-peptide fluorogenic deacetylase assay with recombinant SIRT2; Lineweaver-Burk kinetics. The format is biochemical.

Take `Oc1ccc(/C=C/c2cc(O)cc(O)c2)cc1` [compound 1, resveratrol]: the fold induction at 10 µM in assay [1] is 11.6. On to `COc1ccc2ccc(=O)oc2c1CC=C(C)C` [compound 4, osthole], for which, in assay [2], the IC50 was found to be 10 µM.
